Results published in article PMC8765293, “Inhibitor-Resistant Mutants Give Important Insights into Candida albicans ABC Transporter Cdr1 Substrate Specificity and Help Elucidate Efflux Pump Inhibition” (Antimicrobial Agents and Chemotherapy, 2022).
In brackets after ≈: the same amount, converted by molar mass. Read-outs that look alike come from different tables or passages of the source.

Tests used:
[1] = biological target: wt Cdr1 ATPase activity (Candida albicans, UniProt Q5ANA3); assay: biochemical; settings: for Vmax of ATPase activity in the presence of inhibitor: CDR1; for type of inhibition of ATPase activity (Lineweaver-Burk): wt Cdr1
[2] = tested on: AD/pABC3 (empty vector control, sensitive strain); settings: cited from earlier work
[3] = biological target: Cdr1-T1355N (FLC transport) (Candida albicans, UniProt Q5ANA3, T1355N); assay: Agarose diffusion FLC chemosensitization assay; assay type: cell-based; settings: 0.25× MICFLC, disc
Procedure: (§1) Compounds were tested for inhibition of FLC transport by yeast strains overexpressing Cdr1 or Cdr1 mutations.

[4] = biological target: Cdr1-A713P (FLC transport) (Candida albicans, UniProt Q5ANA3, A713P); assay: Agarose diffusion FLC chemosensitization assay; assay type: cell-based; settings: 0.25× MICFLC, disc
Procedure: as §1

[5] = biological target: Cdr1-M639I (FLC transport) (Candida albicans, UniProt Q5ANA3, M639I); assay: Agarose diffusion FLC chemosensitization assay; assay type: cell-based; settings: 0.25× MICFLC, disc
Procedure: as §1

[6] = biological target: Cdr1-G521R (FLC transport) (Candida albicans, UniProt Q5ANA3, G521R); assay: Agarose diffusion FLC chemosensitization assay; assay type: cell-based; settings: 0.25× MICFLC, disc
Procedure: as §1

[7] = tested on: all strains, including AD/pABC3; assay: Liquid MIC of efflux pump inhibitors alone
[8] = biological target: wt Cdr1 (FLC efflux of AD/CDR1 cells) (Candida albicans, UniProt Q5ANA3); settings: for lowest MICFLC in the presence of inhibitor: FLC 5 to 640 mg/L tested
[9] = tested on: AD/pABC3 (empty vector control, sensitive strain)
[10] = tested on: AD/CDR1-T1355N; assay: MIC, modified CLSI M27-A3 broth microdilution
[11] = tested on: AD/pABC3 (empty vector control, sensitive strain); assay: microbe, parasite or virus in culture; settings: Saccharomyces cerevisiae, read-out: MIC (drug susceptibility)
[12] = tested on: AD/CDR1-G521R; assay: MIC, modified CLSI M27-A3 broth microdilution
[13] = tested on: AD/CDR1-M639I; assay: MIC, modified CLSI M27-A3 broth microdilution
[14] = tested on: AD/CDR1 (AD1-8u- overexpressing wt Cdr1); assay: MIC, modified CLSI M27-A3 broth microdilution; settings: Saccharomyces cerevisiae, read-out: MIC (drug susceptibility)
[15] = tested on: AD/CDR1-A713P; assay: MIC, modified CLSI M27-A3 broth microdilution
[16] = biological target: wt Cdr1 (FLC transport of AD/CDR1 cells) (Candida albicans, UniProt Q5ANA3); assay: Agarose diffusion FLC chemosensitization assay; assay type: cell-based; settings: inhibitor-only control
Procedure: as §1

[17] = CDR1 (wt), from Fig. 4, read-out: IC50 for inhibition of Cdr1 ATPase activity
[18] = Saccharomyces cerevisiae, read-out: MIC (drug susceptibility)

Cdr1-A713P (FLC transport), sequence (Q5ANA3 whole entry A713P, the tested form may be a part): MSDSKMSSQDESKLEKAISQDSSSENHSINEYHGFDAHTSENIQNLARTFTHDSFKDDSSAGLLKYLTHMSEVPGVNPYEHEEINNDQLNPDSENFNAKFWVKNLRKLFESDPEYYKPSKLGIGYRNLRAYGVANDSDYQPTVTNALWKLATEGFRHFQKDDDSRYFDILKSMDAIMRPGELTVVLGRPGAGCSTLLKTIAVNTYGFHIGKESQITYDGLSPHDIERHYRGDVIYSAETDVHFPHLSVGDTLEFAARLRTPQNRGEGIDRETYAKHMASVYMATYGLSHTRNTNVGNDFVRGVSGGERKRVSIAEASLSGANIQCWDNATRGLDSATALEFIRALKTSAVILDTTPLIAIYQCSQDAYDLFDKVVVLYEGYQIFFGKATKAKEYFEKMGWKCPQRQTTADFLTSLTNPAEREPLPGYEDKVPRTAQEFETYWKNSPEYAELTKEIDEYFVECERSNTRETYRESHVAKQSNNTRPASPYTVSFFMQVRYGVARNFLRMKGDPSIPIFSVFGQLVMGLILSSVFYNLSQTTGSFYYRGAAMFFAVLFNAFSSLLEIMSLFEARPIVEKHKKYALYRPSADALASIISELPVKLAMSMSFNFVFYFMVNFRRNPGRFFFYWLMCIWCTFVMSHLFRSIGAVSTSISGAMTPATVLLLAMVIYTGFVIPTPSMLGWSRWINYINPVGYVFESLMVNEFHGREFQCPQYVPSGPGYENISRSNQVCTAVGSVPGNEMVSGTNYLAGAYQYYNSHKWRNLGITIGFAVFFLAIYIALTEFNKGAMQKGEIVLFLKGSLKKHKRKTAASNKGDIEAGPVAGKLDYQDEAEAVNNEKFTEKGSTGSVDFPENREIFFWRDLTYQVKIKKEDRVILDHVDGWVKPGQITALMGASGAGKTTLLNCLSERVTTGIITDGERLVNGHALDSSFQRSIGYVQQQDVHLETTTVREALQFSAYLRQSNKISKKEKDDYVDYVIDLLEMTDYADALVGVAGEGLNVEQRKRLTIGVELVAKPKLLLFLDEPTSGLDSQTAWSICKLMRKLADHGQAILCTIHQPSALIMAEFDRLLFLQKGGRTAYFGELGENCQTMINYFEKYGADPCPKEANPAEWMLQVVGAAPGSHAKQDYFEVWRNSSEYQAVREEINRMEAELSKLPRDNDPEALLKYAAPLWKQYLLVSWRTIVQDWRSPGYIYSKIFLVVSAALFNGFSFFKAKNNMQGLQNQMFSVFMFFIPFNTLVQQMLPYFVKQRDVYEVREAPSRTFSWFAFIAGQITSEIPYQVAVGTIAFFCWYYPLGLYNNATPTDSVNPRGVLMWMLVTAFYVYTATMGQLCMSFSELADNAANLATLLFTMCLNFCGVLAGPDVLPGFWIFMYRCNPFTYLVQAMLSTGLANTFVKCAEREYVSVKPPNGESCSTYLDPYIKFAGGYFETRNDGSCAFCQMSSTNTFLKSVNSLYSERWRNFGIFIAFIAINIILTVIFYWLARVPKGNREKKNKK
wt Cdr1 (FLC efflux of AD/CDR1 cells), sequence (Q5ANA3 whole entry): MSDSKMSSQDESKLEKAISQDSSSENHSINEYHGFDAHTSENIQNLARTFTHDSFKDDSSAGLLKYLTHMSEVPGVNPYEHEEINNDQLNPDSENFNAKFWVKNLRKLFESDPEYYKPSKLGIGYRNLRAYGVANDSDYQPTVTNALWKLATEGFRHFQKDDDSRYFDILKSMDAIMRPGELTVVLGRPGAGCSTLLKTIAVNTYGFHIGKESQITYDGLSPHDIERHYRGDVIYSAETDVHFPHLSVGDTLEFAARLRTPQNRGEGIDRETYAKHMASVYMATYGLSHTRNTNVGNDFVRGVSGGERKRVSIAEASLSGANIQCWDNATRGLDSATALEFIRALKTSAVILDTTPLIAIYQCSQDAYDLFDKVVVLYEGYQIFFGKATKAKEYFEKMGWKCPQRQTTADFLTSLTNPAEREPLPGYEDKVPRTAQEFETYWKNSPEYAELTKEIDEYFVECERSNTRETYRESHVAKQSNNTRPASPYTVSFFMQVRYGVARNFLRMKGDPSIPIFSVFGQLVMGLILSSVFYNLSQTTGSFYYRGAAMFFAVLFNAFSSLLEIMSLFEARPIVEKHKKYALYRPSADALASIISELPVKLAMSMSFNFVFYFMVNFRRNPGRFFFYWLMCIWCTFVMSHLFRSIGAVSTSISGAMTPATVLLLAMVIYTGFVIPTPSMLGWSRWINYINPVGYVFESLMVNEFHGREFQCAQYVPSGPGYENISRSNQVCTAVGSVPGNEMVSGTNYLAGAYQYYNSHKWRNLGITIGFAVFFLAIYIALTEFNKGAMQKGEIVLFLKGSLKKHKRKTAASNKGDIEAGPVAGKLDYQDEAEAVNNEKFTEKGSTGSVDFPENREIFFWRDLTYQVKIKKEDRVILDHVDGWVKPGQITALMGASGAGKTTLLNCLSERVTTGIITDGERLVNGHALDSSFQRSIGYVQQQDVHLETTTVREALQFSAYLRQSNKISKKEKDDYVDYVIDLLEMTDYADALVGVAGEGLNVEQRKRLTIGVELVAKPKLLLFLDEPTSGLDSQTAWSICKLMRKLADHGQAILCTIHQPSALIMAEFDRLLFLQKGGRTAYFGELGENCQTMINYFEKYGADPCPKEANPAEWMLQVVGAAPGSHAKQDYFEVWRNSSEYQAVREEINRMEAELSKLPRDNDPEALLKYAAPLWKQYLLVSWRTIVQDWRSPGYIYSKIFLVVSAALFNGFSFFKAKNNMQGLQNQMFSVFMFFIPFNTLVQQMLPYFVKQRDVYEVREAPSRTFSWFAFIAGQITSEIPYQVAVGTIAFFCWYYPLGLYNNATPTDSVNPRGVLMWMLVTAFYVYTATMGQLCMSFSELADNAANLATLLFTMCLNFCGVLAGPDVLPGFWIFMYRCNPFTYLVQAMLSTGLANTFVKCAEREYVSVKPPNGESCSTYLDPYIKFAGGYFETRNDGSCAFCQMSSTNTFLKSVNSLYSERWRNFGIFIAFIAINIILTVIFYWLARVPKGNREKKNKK
wt Cdr1 ATPase activity, sequence (Q5ANA3 whole entry): as above

| Molecule | Vmax of ATPase activity in the presence of inhibitor ([1]; [I] 0.5 μM) [nmol/min/mg] | type of inhibition of ATPase activity (Lineweaver-Burk) [1] | synergy with the Cdr1 substrates FLC and R6G [2] | susceptibility of FLC transport to inhibitor on agar [3] | susceptibility of FLC transport to inhibitor on agar [4] | susceptibility of FLC transport to inhibitor on agar [5] | susceptibility of FLC transport to inhibitor on agar [6] | FICI (inhibitor/FLC combination) [8] | IC50 [8] [nM] | lowest inhibitor concentration necessary to achieve the lowest MICFLC ([8]; CDR1) [µM] | lowest MICFLC in the presence of inhibitor ([8]; CDR1) [mg/L] | IC50 [1, 17] [nM] | other results |
| --- | --- | --- | --- | --- | --- | --- | --- | --- | --- | --- | --- | --- | --- |
| CC(C)[C@H]1C(=O)O[C@H](C(C)C)C(=O)N(C)[C@@H](C(C)C)C(=O)O[C@H](C(C)C)C(=O)N(C)[C@@H](C(C)C)C(=O)O[C@H](C(C)C)C(=O)N1C [Enniatin B, enniatin B] | 98 | noncompetitive inhibition | no synergy | substantial resistance | remained susceptible | substantial resistance | resistant | <0.13 | 160 | 1.25 | 5 | – | IC50 [1]: 180 nM; Ki [1]: 200 ± 30 nM; Vmax of ATPase activity in the presence of inhibitor ([1]; [I] 0.1 μM): 182 nmol/min/mg; MIC ([7]; Saccharomyces cerevisiae, read-out: MIC of inhibitor alone): 10 µM |
| C=CC[C@@H]1/C=C(\C)C[C@H](C)C[C@H](OC)[C@H]2O[C@@](O)(C(=O)C(=O)N3CCCC[C@H]3C(=O)O[C@H](/C(C)=C/[C@@H]3CC[C@@H](O)[C@H](OC)C3)[C@H](C)[C@@H](O)CC1=O)[C@H](C)C[C@@H]2OC [FK506] | 233 | noncompetitive inhibition | no synergy | remained susceptible | resistant | remained susceptible | resistant | <0.26 | 2500 | 40 | 5 | 1250 | Ki ([1]; CDR1 (wt), Dixon plot, read-out: Ki (Cdr1 ATPase activity)): 1210 ± 240 nM; Vmax of ATPase activity in the presence of inhibitor ([1]; [I] 1.0 μM): 164 nmol/min/mg |
| OC(Cn1cncn1)(Cn1cncn1)c1ccc(F)cc1F [FLC, fluconazole] | – | – | – | – | – | – | – | – | – | – | – | – | MIC (drug susceptibility) [9]: 1 µg/mL (≈ 3.27 µM); effect of substrate on ATPase activity [1]: no effect; MIC [10, 18]: 320 µg/mL (≈ 1040 µM); Fold-reduced resistance level (MIC) relative to AD/CDR1 ([10]; T1355N, 1 = no change): 2 fold; MIC [11]: 1.25 µg/mL (≈ 4.08 µM); Fold-reduced resistance level (MIC) relative to AD/CDR1 ([12]; G521R, 1 = no change): 4 fold; MIC [12, 18]: 160 µg/mL (≈ 522 µM); Fold-reduced resistance level (MIC) relative to AD/CDR1 ([13]; M639I, 1 = no change): 1 fold; MIC [13, 18]: 640 µg/mL (≈ 2090 µM); MIC [14]: 640 µg/mL (≈ 2090 µM); Fold-reduced resistance level (MIC) relative to AD/CDR1 ([15]; A713P, 1 = no change): 2 fold; MIC [15, 18]: 320 µg/mL (≈ 1040 µM); MICFLC [8]: 640 mg/L |
| beauvericin | 63 | noncompetitive inhibition | no synergy | slightly more resistant | remained susceptible | – | resistant | <0.13 | – | 1.25 | 5 | – | Vmax of ATPase activity in the presence of inhibitor ([1]; [I] 0.2 μM): 132 nmol/min/mg |
| milbemycin α25 | – | – | – | most resistance | resistant | most resistance | more resistant | <0.02 | – | 0.63 | 5 | 2800 | toxicity of inhibitor alone on agar without FLC [16]: slight growth inhibitory zone; MIC of inhibitor alone ([7]; all strains, including AD/pABC3): > 20 µM; FICI (inhibitor/FLC combination) ([8]; listed as milbemycin α25): 0.02; IC50 ([8]; read-out: IC50 for inhibition of FLC efflux (MICFLC), CDR1, live whole cells, from Fig. 3B): 80 nM |
